We go through three compounds from article PMC11763264, “Antibacterial and Antifungal Activities of Linear and Cyclic Peptides Containing Arginine, Tryptophan, and Diphenylalanine” (Antibiotics, 2025).

≈ marks a conversion by molar mass, not a printed value. Non-standard residues stand in square brackets, D forms with d. Residues, ends and D or L forms follow the SMILES beside them. Dip = N[C@H](C(=O)O)C(c1ccccc1)c1ccccc1

The test system of assay [1] is S. pneumoniae (ATCC 51938). As to the kind of experiment: microbe, parasite or virus in culture. The note with it: ATCC 51938, 24 h. It is filed as cell-based, Streptococcus pneumoniae. As to the method: (§1) The antibacterial activity of all ten synthesized linear and cyclic peptides was evaluated against MRSA (ATCC BAA-1556), S. aureus (ATCC 29213), E. faecium (ATCC 700221), S. pneumoniae (ATCC 51938), E. faecalis (ATCC 29212), B. subtilis (ATCC-6633), K. pneumoniae (ATCC BAA-1705), P. aeruginosa (ATCC 27883), and E. coli (ATCC 25922). Meropenem and daptomycin were used as positive controls for this study. Certain peptides are marked as “NT” (not tested) against specific bacterial strains based on initial screening data. […] The MIC was determined by micro-broth dilution protocol, where the minimal concentrations were determined to be in wells with no visible bacterial growth.
(§2) All bacterial experiments were carried out in a laminar flow hood (Labconco, Kansas City, MO, USA). The bacterial strains were cultured following the guidelines set by the Clinical Laboratory Standards Institute (CLSI). Antibacterial assays were performed using a standard microtiter dilution method as described in previous studies. The minimum inhibitory concentration (MIC) refers to the lowest peptide concentration that inhibits bacterial growth in wells with no visible bacterial growth. MIC was determined by micro-broth dilution. Bacteria were cultured overnight in 6 mL of Luria Broth (LB). A stock solution of the peptide was prepared in water and DMSO, and a test compound solution with a concentration of 256 µg/mL was made in LB. Meropenem, with a solubility of 8 mg/mL, was prepared as a stock solution at 4 mg/500 µL. An aliquot of the overnight bacteria culture was diluted in normal saline (NS, 1 mL) until achieving a 0.5 McFarland turbidity (1.5 × 10^8 bacterial cell CFU/mL). A 0.5 McFarland compared solution (60 µL) was added to Mueller Hinton Broth (MH) 8940 µL to generate a 1/150 dilution. A 200 µL test compound solution was added to the first well of a 96-well plate, and the remaining wells (2–12) were filled with 100 µL of MH media using a multi-channel pipette from a sterile reservoir. A concentration of […] of the tested peptides was prepared from a stock solution of the samples for testing in Muller−Hinton broth MH media. Peptides stock solution was dissolved in 5% DMSO in water, and the final concentration of DMSO in the first well of assay plate was 2.5% DMSO/H2O and diluted across the assay plate.
(§3) A 100 µL sample from well 1 was pipetted into well 2, and the solution was mixed thoroughly by pipetting up and down. Next, 100 µL was transferred from well 2 to well 3, followed by thorough mixing. This 2-fold serial dilution process continued through well 11, with no additions made to well 12. The final 100 µL from well 11 was discarded. After completing the serial dilution, each well (1–12) contained 100 µL of solution. The bacterial culture in MH media was vortexed and transferred to a sterile reservoir, from which 100 µL was added to each well using a 12-channel pipette. (Note: The dilutions were further diluted upon adding the bacterial solution; for example, the concentration in well 1 started at […] after the addition of the bacterial culture.) The plates were incubated overnight at 37 °C for 24 h. All experiments were performed in triplicate and repeated twice, with controls consisting of bacteria in MH media and positive controls of daptomycin or meropenem.

In assay [2] the test system is P. aeruginosa (ATCC 27883). Nature of the assay: microbe, parasite or virus in culture. It is filed as cell-based, Pseudomonas aeruginosa. The note with it: ATCC 27883, 24 h. As to the method:
as §1, §2, §3

In a further assay the test system is E. coli (ATCC 25922). Nature of the assay: microbe, parasite or virus in culture. It is filed as cell-based, Escherichia coli. Conditions: ATCC 25922, 24 h. As to the method: as §1, §2, §3
In another assay the test system is MRSA (ATCC BAA-1556). Nature of the assay: microbe, parasite or virus in culture. Type of assay: cell-based, Methicillin-Resistant Staphylococcus aureus. The note with it: ATCC BAA-1556, 24 h. As to the method: as §1, §2, §3
Another assay relates to S. aureus (ATCC 29213). As to the kind of experiment: microbe, parasite or virus in culture. It is filed as cell-based, Staphylococcus aureus. The note with it: ATCC 29213, 24 h. As to the method:
as §1, §2, §3

The next assay concerns B. subtilis (ATCC-6633). Nature of the assay: microbe, parasite or virus in culture. Conditions: ATCC-6633, 24 h. Type of assay: cell-based, Bacillus subtilis. As to the method:
as §1, §2, §3

Assay [3] relates to C. parapsilosis (ATCC 22019). As to the kind of experiment: microbe, parasite or virus in culture. Type of assay: cell-based, Candida parapsilosis. The note with it: ATCC 22019, 24 h. As to the method: (§4) The antifungal activity of all ten synthesized linear and cyclic peptides was evaluated against C. albicans (ATCC 60193), C. parapsilosis (ATCC 22019), and A. fumigatus (AF-293). Fluconazole and amphotericin B were used as positive controls for this study. The MIC was determined at concentrations in wells with no visible fungal growth.
(§5) In this study, C. albicans and C. parapsilosis were cultured on Yeast Peptone Dextrose (YPD) agar containing 1% w/v yeast extract, 2% w/v peptone, 2% w/v D-glucose, and 1.5% agar. A single colony from the agar was selected and cultured in Tryptone soy broth supplemented with 0.1% D-glucose, then incubated for 24 h at 37 °C. The cells were washed twice with PBS by centrifugation at 2000 RPM for 5 min. The pellet was resuspended in 5 mL of PBS, diluted in RPMI 1640 with L-glutamine, supplemented with 2% D-glucose, and the pH adjusted using HEPES buffer. The suspension was then incubated for 50 min at 35 °C to achieve a final cell concentration of 10^6 cells/mL.
(§6) Peptide concentrations of 50, 25, 12.5, 6.25, and 3.1 μg/mL were tested in triplicate and repeated twice. Each well of a 96-well plate was inoculated with the prepared inoculum suspension, which was diluted with RPMI media to a final volume of 200 μL per well. The control well received the same inoculum without any compound. The plates were incubated for 24 h at 37 °C. Fungal and microbial growth were visually observed in the control wells, and the minimum inhibitory concentration (MIC) was determined as the lowest concentration at which no growth was detected in the wells. Amphotericin B was used as a standard antifungal drug.

The subject of a further assay is E. faecium (ATCC 700221). Nature of the assay: microbe, parasite or virus in culture. It is filed as cell-based, Enterococcus faecium. Conditions: ATCC 700221, 24 h. As to the method: as §1, §2, §3
In a further assay the test system is C. albicans (ATCC 60193). Nature of the assay: microbe, parasite or virus in culture. It is filed as cell-based, Candida albicans. Conditions: ATCC 60193, 24 h. As to the method:
as §4, §5, §6

The test system of assay [4] is K. pneumoniae (ATCC BAA-1705). Nature of the assay: microbe, parasite or virus in culture. It is filed as cell-based, Klebsiella pneumoniae. Conditions: ATCC BAA-1705, 24 h. As to the method: as §1, §2, §3
For another assay, the system named is E. faecalis (ATCC 29212). Nature of the assay: microbe, parasite or virus in culture. The note with it: ATCC 29212, 24 h. Type of assay: cell-based, Enterococcus faecalis. As to the method: as §1, §2, §3
The next assay has as its system MRSA. The note with it: previous work; cited from earlier work. From the text:
We have previously reported the synthesis of [E4W4], [KR5], [F4R5], [Y4R4], and [R4W4] and tested them against bacterial pathogens.

`N=C(N)NCCC[C@H](NC(=O)[C@@H](NC(=O)[C@H](CCCNC(=N)N)NC(=O)[C@H](Cc1c[nH]c2ccccc12)NC(=O)[C@H](CCCNC(=N)N)NC(=O)[C@H](Cc1c[nH]c2ccccc12)NC(=O)[C@H](CCCNC(=N)N)NC(=O)[C@H](Cc1c[nH]c2ccccc12)NC(=O)[C@H](CCCNC(=N)N)NC(=O)[C@@H](N)Cc1c[nH]c2ccccc12)C(c1ccccc1)c1ccccc1)C(=O)O` [((DipR)(WR)4)] (H-WRWRWRWR[Dip]R-OH): the MIC is listed as 0.78 µM (≈ 1.38 µg/mL) in assay [1]; 25 µM (≈ 44.2 µg/mL) in assay [2]; 12.5 µM (≈ 22.1 µg/mL) against E. coli (ATCC 25922); 6.3 µM (≈ 11.1 µg/mL) against MRSA (ATCC BAA-1556); 6.3 µM (≈ 11.1 µg/mL) in the assay with S. aureus (ATCC 29213); 3.1 µM (≈ 5.48 µg/mL) against B. subtilis (ATCC-6633). Also, the MIC in assay [3] is 14.1 µM (≈ 24.9 µg/mL); against E. faecium (ATCC 700221) it was 3.1 µM (≈ 5.48 µg/mL); against C. albicans (ATCC 60193), 28.2 µM (≈ 49.8 µg/mL); in assay [4], 12.5 µM (≈ 22.1 µg/mL); in the assay with E. faecalis (ATCC 29212), 12.5 µM (≈ 22.1 µg/mL).

Take `N=C(N)NCCC[C@H](NC(=O)[C@H](CCCNC(=N)N)NC(=O)[C@@H](NC(=O)[C@H](CCCNC(=N)N)NC(=O)[C@@H](NC(=O)[C@H](CCCNC(=N)N)NC(=O)[C@@H](NC(=O)[C@H](CCCNC(=N)N)NC(=O)[C@@H](N)C(c1ccccc1)c1ccccc1)C(c1ccccc1)c1ccccc1)C(c1ccccc1)c1ccccc1)C(c1ccccc1)c1ccccc1)C(=O)O` [(DipR)4R] (H-[Dip]R[Dip]R[Dip]R[Dip]RR-OH): the MIC is on record as 0.39 µM (≈ 0.66 µg/mL) in assay [1]; 12.5 µM (≈ 21.2 µg/mL) in assay [2]; 6.3 µM (≈ 10.7 µg/mL) against E. coli (ATCC 25922); 1.6 µM (≈ 2.71 µg/mL) against MRSA (ATCC BAA-1556); 1.6 µM (≈ 2.71 µg/mL) against S. aureus (ATCC 29213); 1.6 µM (≈ 2.71 µg/mL) with B. subtilis (ATCC-6633). Further, the MIC is reported as 7.4 µM (≈ 12.5 µg/mL) in [3]; 1.6 µM (≈ 2.71 µg/mL) against E. faecium (ATCC 700221); 7.4 µM (≈ 12.5 µg/mL) in the assay on C. albicans (ATCC 60193); 6.3 µM (≈ 10.7 µg/mL) in assay [4]; 3.1 µM (≈ 5.25 µg/mL) with E. faecalis (ATCC 29212).

As to [R4W4], the “MIC against MRSA” value in the assay with MRSA is 2.67 µg/mL.
